Measured values as given in ChEMBL document CHEMBL1201862, “PubChem BioAssay data set” (2004).
The source made the active and inactive calls.

What was measured:
cells [1] = format: functional, cell-based
cells [2] = format: functional, cell-based; remark: listed apart in the source
[3] = biological target: T1, Heat shock factor protein 1 (Mus musculus, UniProt P38532); assay: HSF1 potentiators in luciferase reporter cells, confirmation, cell-based, NIH3T3, luminescence, dose retest (AID 435004); format: functional;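 note: stress induced by proteasome inhibitor MG132 added 30 min after compound; luciferase reporter driven by HSF1 response element in NIH3T3 cells; actives raise luminescence as potentiators of the MG132 stress response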
T1 sequence (P38532 whole entry): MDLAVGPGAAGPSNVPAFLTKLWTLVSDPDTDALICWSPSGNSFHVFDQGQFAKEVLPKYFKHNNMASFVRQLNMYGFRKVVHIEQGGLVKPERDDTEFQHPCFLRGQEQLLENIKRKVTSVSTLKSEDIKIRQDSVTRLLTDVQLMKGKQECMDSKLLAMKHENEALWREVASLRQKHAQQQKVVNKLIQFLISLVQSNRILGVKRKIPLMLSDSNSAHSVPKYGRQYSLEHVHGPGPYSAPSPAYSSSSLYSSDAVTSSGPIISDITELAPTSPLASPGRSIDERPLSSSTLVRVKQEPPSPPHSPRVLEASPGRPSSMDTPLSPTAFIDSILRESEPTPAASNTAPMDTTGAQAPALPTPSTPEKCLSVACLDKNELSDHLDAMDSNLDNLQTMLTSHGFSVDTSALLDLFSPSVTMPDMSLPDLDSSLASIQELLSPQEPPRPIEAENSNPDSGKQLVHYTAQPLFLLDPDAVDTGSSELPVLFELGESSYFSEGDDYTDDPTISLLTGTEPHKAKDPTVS

[4] = biological target: T2, RNA-binding protein pos-1 (Caenorhabditis elegans, UniProt G5EF15); assay: inhibitors of POS-1/mex-3 RNA binding, dose response, biochemical, fluorescence polarization (AID 1964);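 note: purified POS-1 fused to maltose binding protein made in E. coli; potency of compounds blocking POS-1 binding to fluorescent RNA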
T2 sequence (G5EF15 whole entry): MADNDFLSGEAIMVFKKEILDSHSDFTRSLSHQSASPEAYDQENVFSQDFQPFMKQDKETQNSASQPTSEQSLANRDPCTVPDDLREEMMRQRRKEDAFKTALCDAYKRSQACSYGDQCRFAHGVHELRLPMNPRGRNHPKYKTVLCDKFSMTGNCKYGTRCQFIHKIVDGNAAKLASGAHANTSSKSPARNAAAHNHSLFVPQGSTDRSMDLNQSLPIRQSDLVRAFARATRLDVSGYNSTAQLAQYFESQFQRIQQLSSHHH

[5] = biological target: T3, Zinc finger protein mex-5 (Caenorhabditis elegans, UniProt Q9XUB2); assay: MEX-5/TCR-2 RNA interaction inhibitors, dose response, biochemical, C. elegans, fluorescence polarization (AID 1960)
T3 sequence (Q9XUB2 whole entry): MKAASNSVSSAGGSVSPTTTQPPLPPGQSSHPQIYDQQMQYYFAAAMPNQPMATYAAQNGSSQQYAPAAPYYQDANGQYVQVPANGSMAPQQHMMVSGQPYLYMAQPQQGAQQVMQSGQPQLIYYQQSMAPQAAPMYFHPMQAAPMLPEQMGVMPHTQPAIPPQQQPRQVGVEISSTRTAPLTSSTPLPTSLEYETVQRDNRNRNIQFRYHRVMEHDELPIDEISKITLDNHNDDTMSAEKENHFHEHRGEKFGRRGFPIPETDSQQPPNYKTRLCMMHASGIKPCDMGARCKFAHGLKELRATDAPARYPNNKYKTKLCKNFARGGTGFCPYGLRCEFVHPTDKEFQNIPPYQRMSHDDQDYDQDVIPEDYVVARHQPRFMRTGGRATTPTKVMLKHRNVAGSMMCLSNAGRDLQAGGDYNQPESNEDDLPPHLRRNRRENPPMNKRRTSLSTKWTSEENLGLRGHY

Cytochrome P450 2C9 = Cytochrome P450 2C9 (Homo sapiens, UniProt P11712)
Cytochrome P450 2C9, sequence (P11712 whole entry): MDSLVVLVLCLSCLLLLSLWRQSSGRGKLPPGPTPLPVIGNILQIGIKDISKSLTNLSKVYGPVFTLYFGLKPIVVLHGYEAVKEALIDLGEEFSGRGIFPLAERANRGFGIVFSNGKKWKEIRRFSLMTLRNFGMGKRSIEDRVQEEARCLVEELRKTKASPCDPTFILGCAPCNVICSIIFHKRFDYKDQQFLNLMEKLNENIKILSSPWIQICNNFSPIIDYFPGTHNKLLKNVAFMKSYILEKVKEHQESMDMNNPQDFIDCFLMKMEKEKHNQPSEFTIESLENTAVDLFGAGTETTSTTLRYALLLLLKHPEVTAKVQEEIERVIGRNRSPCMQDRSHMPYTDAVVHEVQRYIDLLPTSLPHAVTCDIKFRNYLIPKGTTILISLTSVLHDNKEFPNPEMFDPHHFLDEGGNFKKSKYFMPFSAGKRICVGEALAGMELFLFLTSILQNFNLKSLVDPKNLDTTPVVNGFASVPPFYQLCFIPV

[6] = NIH-3T3 fibroblast cytotoxicity, dose response, cytotoxicity control, cell-based, fluorescence, Alamar Blue, secondary assay (AID 2327); format: functional;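 note: NIH-3T3 mouse fibroblasts cultured with fluconazole at 8 µg/mL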
[7] = C. albicans growth with fluconazole, confirmation, fluorescence, retest (AID 2467); format: functional, cell-based
Large T antigen = Large T antigen (Simian virus 40, UniProt P03070); format: functional, Betapolyomavirus macacae;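 note: Confirmatory-stage PubChem screen for compounds that inhibit SV40 T antigen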
Large T antigen, sequence (P03070 whole entry): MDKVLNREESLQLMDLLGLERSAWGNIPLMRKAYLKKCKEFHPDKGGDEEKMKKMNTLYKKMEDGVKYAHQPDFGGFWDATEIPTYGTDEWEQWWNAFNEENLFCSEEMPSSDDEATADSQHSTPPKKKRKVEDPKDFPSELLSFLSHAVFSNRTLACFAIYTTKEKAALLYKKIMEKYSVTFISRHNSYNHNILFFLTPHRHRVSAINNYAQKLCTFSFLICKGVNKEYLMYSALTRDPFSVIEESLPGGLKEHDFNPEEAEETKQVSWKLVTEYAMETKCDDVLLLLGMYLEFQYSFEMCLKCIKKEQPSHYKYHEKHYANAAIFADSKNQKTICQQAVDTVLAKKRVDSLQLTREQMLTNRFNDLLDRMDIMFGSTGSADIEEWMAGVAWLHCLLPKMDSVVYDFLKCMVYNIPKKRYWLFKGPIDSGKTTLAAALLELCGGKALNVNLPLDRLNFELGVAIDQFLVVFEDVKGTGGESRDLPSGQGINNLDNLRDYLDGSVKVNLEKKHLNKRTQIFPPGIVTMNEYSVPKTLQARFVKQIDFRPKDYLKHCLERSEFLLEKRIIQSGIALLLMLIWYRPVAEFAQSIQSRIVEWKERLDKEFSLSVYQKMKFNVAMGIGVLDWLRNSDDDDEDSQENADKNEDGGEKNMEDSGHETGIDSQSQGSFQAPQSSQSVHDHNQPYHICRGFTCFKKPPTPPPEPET

[8] = biological target: T4, Rac GTPase-activating protein 1 (Homo sapiens, UniProt Q9H0H5); assay: MgcRacGAP GTPase-activating activity inhibitors, confirmation, biochemical, ADP Hunter fluorescence, primary and confirmatory (AID 624330); format: functional
T4 sequence (Q9H0H5 whole entry): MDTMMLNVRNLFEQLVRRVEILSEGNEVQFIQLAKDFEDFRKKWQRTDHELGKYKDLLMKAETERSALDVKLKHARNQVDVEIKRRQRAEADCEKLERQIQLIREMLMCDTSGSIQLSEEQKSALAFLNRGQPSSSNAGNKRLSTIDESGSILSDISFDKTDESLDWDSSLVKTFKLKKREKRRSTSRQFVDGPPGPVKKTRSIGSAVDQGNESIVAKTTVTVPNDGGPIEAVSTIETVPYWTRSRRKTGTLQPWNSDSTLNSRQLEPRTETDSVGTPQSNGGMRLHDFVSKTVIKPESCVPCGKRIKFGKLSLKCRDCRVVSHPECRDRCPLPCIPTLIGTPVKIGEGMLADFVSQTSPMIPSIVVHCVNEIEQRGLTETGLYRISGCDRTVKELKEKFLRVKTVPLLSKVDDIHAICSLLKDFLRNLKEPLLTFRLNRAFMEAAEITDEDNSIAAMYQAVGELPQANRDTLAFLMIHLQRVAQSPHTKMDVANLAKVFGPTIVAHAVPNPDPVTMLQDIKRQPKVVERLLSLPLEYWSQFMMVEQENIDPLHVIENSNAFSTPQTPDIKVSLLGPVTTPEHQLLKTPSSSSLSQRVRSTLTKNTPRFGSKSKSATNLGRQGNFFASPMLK

[9] = HEp-2 cell cytotoxicity, dose response, cytotoxicity control for RSV inhibitor project, HTS (AID 2410); format: functional; conditions: human respiratory syncytial virus
Cytochrome P450 2C19 = Cytochrome P450 2C19 (Homo sapiens, UniProt P33261); assay: Cytochrome panel assay with activity outcomes. Panel member name: p450-cyp2c19 Compounds with AC50 equal or less than 10 uM are considered active; format: functional
Cytochrome P450 2C19, sequence (P33261 whole entry): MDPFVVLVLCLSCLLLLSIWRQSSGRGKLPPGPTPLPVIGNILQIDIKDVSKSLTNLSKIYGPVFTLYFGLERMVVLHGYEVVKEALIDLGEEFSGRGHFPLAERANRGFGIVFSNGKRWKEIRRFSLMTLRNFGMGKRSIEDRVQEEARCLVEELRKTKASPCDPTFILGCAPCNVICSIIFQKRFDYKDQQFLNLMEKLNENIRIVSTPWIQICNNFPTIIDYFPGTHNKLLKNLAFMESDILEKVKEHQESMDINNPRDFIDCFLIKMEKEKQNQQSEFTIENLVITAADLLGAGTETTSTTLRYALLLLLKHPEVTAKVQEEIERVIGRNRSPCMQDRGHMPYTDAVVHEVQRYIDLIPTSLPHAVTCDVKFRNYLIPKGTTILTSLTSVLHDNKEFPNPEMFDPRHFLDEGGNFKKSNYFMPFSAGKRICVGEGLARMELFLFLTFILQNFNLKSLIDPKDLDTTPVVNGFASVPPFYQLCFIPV

Cytochrome P450 3A4 = Cytochrome P450 3A4 (Homo sapiens, UniProt P08684);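 note: CYP3A4 tested as one member of a cytochrome P450 panel screen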
Cytochrome P450 3A4, sequence (P08684 whole entry): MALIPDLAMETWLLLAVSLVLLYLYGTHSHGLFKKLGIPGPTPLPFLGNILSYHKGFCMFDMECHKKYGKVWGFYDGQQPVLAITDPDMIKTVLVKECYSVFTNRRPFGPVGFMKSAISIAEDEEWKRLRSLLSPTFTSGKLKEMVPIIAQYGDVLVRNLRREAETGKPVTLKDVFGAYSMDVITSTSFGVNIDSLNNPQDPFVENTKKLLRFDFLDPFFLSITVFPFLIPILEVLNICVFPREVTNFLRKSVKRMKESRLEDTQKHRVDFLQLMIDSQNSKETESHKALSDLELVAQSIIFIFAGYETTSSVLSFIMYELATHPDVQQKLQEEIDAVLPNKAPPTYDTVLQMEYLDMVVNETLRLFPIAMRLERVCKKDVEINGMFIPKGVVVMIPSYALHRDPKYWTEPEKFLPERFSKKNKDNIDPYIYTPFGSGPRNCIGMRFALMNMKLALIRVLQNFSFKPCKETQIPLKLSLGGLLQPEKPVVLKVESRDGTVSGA

Cytochrome P450 1A2 = biological target: T5, Cytochrome P450 1A2 (Homo sapiens, UniProt P05177);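 note: PubChem cytochrome P450 panel assay, CYP1A2 panel member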
T5 sequence (P05177 whole entry): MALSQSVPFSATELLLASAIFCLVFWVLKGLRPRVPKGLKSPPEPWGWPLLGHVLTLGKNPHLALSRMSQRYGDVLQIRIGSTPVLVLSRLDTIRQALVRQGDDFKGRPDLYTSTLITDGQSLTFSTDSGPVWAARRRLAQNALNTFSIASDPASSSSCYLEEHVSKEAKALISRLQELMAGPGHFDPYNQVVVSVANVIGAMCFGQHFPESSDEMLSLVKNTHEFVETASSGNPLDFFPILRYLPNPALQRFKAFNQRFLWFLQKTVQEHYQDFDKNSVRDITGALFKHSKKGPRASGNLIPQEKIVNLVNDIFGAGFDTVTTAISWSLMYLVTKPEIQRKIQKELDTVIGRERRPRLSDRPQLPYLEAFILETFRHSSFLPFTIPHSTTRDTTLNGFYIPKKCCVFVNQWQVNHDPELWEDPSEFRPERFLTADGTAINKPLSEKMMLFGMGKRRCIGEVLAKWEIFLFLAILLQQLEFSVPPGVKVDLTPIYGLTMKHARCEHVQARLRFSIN

INS1 = assay: beta cell apoptosis inhibitors, cytokine rescue, dose response, luminescence, retest (AID 449756); format: functional, cell-based; conditions: Rattus norvegicus, INS1;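 note: cell death triggered by IL-1 beta plus TNF-alpha plus IFN-gamma mixture; protective hits raise ATP signal compared with cytokine alone wells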

Structure (SMILES): COc1ccc(NC(=S)c2ccc(N(C)C)cc2)cc1
- EC50 (cells [1]): > 350 µM (not active)
- EC50 (cells [2]): 145 µM (active)
- EC50 [3]: > 260 µM (inactive)

Structure (SMILES): COC(=O)C1=COC(C)C2CN3CCc4c([nH]c5cc(OC)c(OC)cc45)C3CC12 (configuration not stated)
- EC50 [4]: 15.5 µM (active)
- EC50 [5]: 14.4 µM (active)

Structure (SMILES): CN(C)c1cc(-c2ccc([N+](=O)[O-])cc2)oc(=O)c1Cl
- EC50 [4]: 49.5 µM (active)
- EC50 [5]: 165 µM (inconclusive)

Structure (SMILES): COc1ccc2ccc(O)c(CN3CC=C(c4ccccc4)CC3)c2c1
- EC50 [3]: 34.6 µM (active)

Structure (SMILES): COc1ccc(/C=C2/SC(=O)N(CCNC(=O)C3COc4ccccc4O3)C2=O)cc1 (configuration not stated)
- EC50 [3]: > 260 µM (inactive)

Structure (SMILES): Cc1cc(NC(=O)c2ccc(S(=O)(=O)N(C)C)cc2)n(-c2ccccn2)n1
- AC50 (Cytochrome P450 2C9): inconclusive

Structure (SMILES): O=C(Nc1ccc(N=Nc2ccccc2)c(NC(=O)C2CCCO2)c1)C1CCCO1 (configuration not stated)
- EC50 [6]: > 160 µM (inactive)
- EC50 [7]: > 38 µM (not active)

Structure (SMILES): S=C1N=C(c2ccccc2)NCN1c1ccc(Br)cc1
- EC50 [3]: 236 µM (active)

Structure (SMILES): Oc1ccc(/N=C/c2cc(Br)c(N3CCOCC3)o2)cc1
- IC50 (Large T antigen): 21.7 µM (active)
- IC50 [8]: 42 µM (active)

Structure (SMILES): NC(=Nc1ccccc1C(F)(F)F)Nc1nc(O)c2c(n1)CCC2
- CC50 [9]: 46.9 µM (active)
- EC50 [3]: > 260 µM (inactive)

Structure (SMILES): CCN(CC)S(=O)(=O)c1ccc(N2CCOCC2)c(NC(=O)c2cc3ccccc3oc2=O)c1
- EC50 [3]: > 260 µM (inactive)

Structure (SMILES): CCOc1ccc(Cc2nc(C)c(CC(=O)N3CCOCC3)c(O)n2)cc1
- AC50 (Cytochrome P450 2C9): inconclusive

Structure (SMILES): O=C(COc1ccc2c(c1)CCC2)N1CCN(c2cccc(C(F)(F)F)c2)CC1
- EC50 [6]: > 160 µM (inactive)
- EC50 [7]: > 38 µM (not active)

Structure (SMILES): Cc1c(C)c2c(c(C)c1O)CC[C@@](C)(CCC[C@@H](C)CCC[C@@H](C)CCCC(C)C)O2
- AC50 (Cytochrome P450 2C19): inconclusive
- AC50 (Cytochrome P450 2C9): inconclusive

Structure (SMILES): N#Cc1c(-c2ccccc2Cl)c2c([nH]c1=O)-c1ccccc1OC2
- EC50 [4]: > 300 µM (inconclusive)
- EC50 [5]: 38.8 µM (active)

Structure (SMILES): Cc1cs/c(=N\N=C\c2ccc(O)cc2)n1Cc1ccco1
- IC50 (Large T antigen): 25.5 µM (active)
- IC50 [8]: 28.8 µM (active)

Structure (SMILES): O=S(=O)(NCc1cc(-c2ccccc2Cl)no1)c1ccc(Cl)cc1
- AC50 (Cytochrome P450 3A4): 20 µM (inconclusive)
- AC50 (Cytochrome P450 2C9): inconclusive

Structure (SMILES): CN1C(=O)C(=CNc2ccc(N3CCOCC3)cc2)C(=O)N(C)C1=S
- EC50 [4]: > 300 µM (not active)
- EC50 [5]: > 300 µM (inconclusive)

Structure (SMILES): COc1cc(C2Nc3ccc4ncccc4c3C3=C2C(=O)CCC3)cc(OC)c1OC (configuration not stated)
- EC50 [3]: 29.3 µM (active)

Structure (SMILES): N#Cc1cc(N)ccc1Sc1ccc(Cl)cc1
- AC50 (Cytochrome P450 2C9): inconclusive

Structure (SMILES): Cn1cc(C(=O)C(=O)N[C@H]2CN3CCC2CC3)c2ccccc21
- AC50 (Cytochrome P450 2C9): inconclusive

Structure (SMILES): O=C(C[n+]1ccccc1)NN=Cc1ccc(O)cc1
- IC50 (Large T antigen): 11.3 µM (active)
- IC50 [8]: 75 µM (active)

Structure (SMILES): Cc1oc(-c2ccoc2)nc1CN(CC1CCC(=O)N1)C(C)C (configuration not stated)
- EC50 [3]: > 260 µM (inactive)

Structure (SMILES): CN(C)c1ccc(-c2nc3cnccn3c2Nc2ccc3c(c2)OCCO3)cc1
- IC50 (Large T antigen): 12 µM (active)

Structure (SMILES): Cc1c(C(=O)Oc2ccc(-c3cnc4ccccc4n3)cc2)cccc1[N+](=O)[O-]
- IC50 (Large T antigen): 58.2 µM (active)

Structure (SMILES): Cc1ccc(C)n1CCN1CCN(CC(=O)Nc2cc(C(F)(F)F)ccc2Cl)CC1
- AC50 (Cytochrome P450 2C9): inconclusive

Structure (SMILES): O=C(NCC1COc2ccccc2O1)C1CCN(S(=O)(=O)c2cccc3nsnc23)CC1 (configuration not stated)
- AC50 (Cytochrome P450 2C9): inconclusive

Structure (SMILES): COc1ccc(CCN2C(=O)NC(=O)/C(=C\NNC(=O)c3ccncc3)C2=O)cc1OC
- EC50 [5]: 43.7 µM (active)

Structure (SMILES): CCCn1nc(C(=O)Nc2ccc(S(=O)(=O)Nc3nccs3)cc2)c2ccccc2c1=O
- EC50 [4]: > 150 µM (not active)
- EC50 [5]: 27.8 µM (active)

Structure (SMILES): CC(=O)NCCNc1ncncc1-c1ccccc1C
- AC50 (Cytochrome P450 1A2): 25.1 µM (inconclusive)
- AC50 (Cytochrome P450 2C9): inconclusive

Structure (SMILES): CNc1nc(-c2ccccc2)cc(C)c1S(C)(=O)=O
- EC50 [3]: > 260 µM (inactive)

Structure (SMILES): Cc1ccccc1C(=O)NNC(=O)c1ccc(F)cc1
- AC50 (Cytochrome P450 2C9): inconclusive

Structure (SMILES): CCCCNC(=S)NNC(=O)c1cc(C)on1
- EC50 [4]: > 300 µM (not active)
- EC50 [5]: > 300 µM (not active)

Structure (SMILES): O=C(C1=C(O)C(=O)N(Cc2cccnc2)C1c1cccc(O)c1)c1ccc2c(c1)OCCO2 (configuration not stated)
- EC50 [3]: > 260 µM (inactive)

Structure (SMILES): O=S1(=O)N=C(Nc2ccc(N3CCOCC3)cc2)c2ccccc21
- EC50 [6]: > 160 µM (inactive)
- EC50 [7]: > 38 µM (not active)

Structure (SMILES): CC1CC2(CCCCC2)Nc2ccc3ccccc3c21 (configuration not stated)
- EC50 [3]: > 260 µM (inactive)

Structure (SMILES): Cc1ccc(-[n+]2c(-c3ccccc3)cn3c2CCC3)cc1
- EC50 [6]: > 150 µM (inconclusive)
- EC50 [7]: > 38 µM (not active)
- AC50 (INS1): 2.83 µM (active)
